Experimental data from PubChem BioAssay AID2060887 (Molecular Pharmacology Branch, DTP, NCI, 2025).

System: 782815-120-R-J1-PDC complex spheroid viability
Assay: Anticancer human tumor 782815-120-R-J1-PDC patient-derived colon adenocarcinoma cell line growth inhibition [RAS]
Settings: for IC50: curve of first compound; for viability, T/C: stronger effect = lower value
In short: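 Agents were tested in combination matrices in half-log decrements from a top concentration at or near clinical Cmax (10 microM if undetermined). Targets were multi-cell spheroids of tumour lines plus HUVEC and MSC stromal cells.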

[1] = second compound 0.0316 µM, first compound 0.0316 µM
[2] = second compound 0.0316 µM, first compound 0.1 µM
[3] = second compound 0.0316 µM, first compound 0.316 µM
[4] = second compound 0.0316 µM, first compound 1 µM
[5] = second compound 0.1 µM, first compound 0.0316 µM
[6] = second compound 0.1 µM, first compound 0.1 µM
[7] = second compound 0.1 µM, first compound 0.316 µM
[8] = second compound 0.1 µM, first compound 1 µM
[9] = second compound 0.316 µM, first compound 0.0316 µM
[10] = second compound 0.316 µM, first compound 0.1 µM
[11] = second compound 0.316 µM, first compound 0.316 µM
[12] = second compound 0.316 µM, first compound 1 µM
[13] = second compound 1 µM, first compound 0.0316 µM
[14] = second compound 1 µM, first compound 0.1 µM
[15] = second compound 1 µM, first compound 0.316 µM
[16] = second compound 1 µM, first compound 1 µM
[17] = second compound 3.16 µM, first compound 0.0316 µM
[18] = second compound 3.16 µM, first compound 0.1 µM
[19] = second compound 3.16 µM, first compound 0.316 µM
[20] = second compound 3.16 µM, first compound 1 µM
[21] = second compound 10 µM, first compound 0.0316 µM
[22] = second compound 10 µM, first compound 0.1 µM
[23] = second compound 10 µM, first compound 0.316 µM
[24] = second compound 10 µM, first compound 1 µM
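Also: spheroids exposed to compounds for 7 days before reading.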
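For viability, T/C in this document: 100% = DMSO vehicle control viability.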

SMILES: NC1c2ccccc2OC12CCN(c1cnc3c(N4CCCc5ncccc54)n[nH]c3n1)CC2 (centres undefined) + C#Cc1c(F)ccc2cc(O)cc(-c3ncc4c(N5CC6CCC(C5)N6)nc(OCC56CCCN5CC(F)C6)nc4c3F)c12
- IC50 (second compound 0.0316 µM): > 10000 nM
- IC50 (second compound 0.1 µM): > 10000 nM
- IC50 (second compound 0.316 µM): > 10000 nM
- IC50 (second compound 1 µM): > 10000 nM
- IC50 (second compound 3.16 µM): > 10000 nM
- IC50 (second compound 10 µM): > 10000 nM
- viability, T/C [1]: 110%
- viability, T/C [2]: 104%
- viability, T/C [3]: 111%
- viability, T/C [4]: 95.3%
- viability, T/C (second compound 0.0316 µM, first compound 3.16 µM): 99.8%
- viability, T/C (second compound 0.0316 µM, first compound 10 µM): 84%
- viability, T/C [5]: 103%
- viability, T/C [6]: 96%
- viability, T/C [7]: 110%
- viability, T/C [8]: 106%
- viability, T/C (second compound 0.1 µM, first compound 3.16 µM): 94.4%
- viability, T/C (second compound 0.1 µM, first compound 10 µM): 76.6%
- viability, T/C [9]: 99.6%
- viability, T/C [10]: 105%
- viability, T/C [11]: 103%
- viability, T/C [12]: 106%
- viability, T/C (second compound 0.316 µM, first compound 3.16 µM): 96.7%
- viability, T/C (second compound 0.316 µM, first compound 10 µM): 90.4%
- viability, T/C [13]: 109%
- viability, T/C [14]: 102%
- viability, T/C [15]: 110%
- viability, T/C [16]: 106%
- viability, T/C (second compound 1 µM, first compound 3.16 µM): 105%
- viability, T/C (second compound 1 µM, first compound 10 µM): 83.7%
- viability, T/C [17]: 102%
- viability, T/C [18]: 97.1%
- viability, T/C [19]: 102%
- viability, T/C [20]: 98.9%
- viability, T/C (second compound 3.16 µM, first compound 3.16 µM): 99%
- viability, T/C (second compound 3.16 µM, first compound 10 µM): 96.7%
- viability, T/C [21]: 101%
- viability, T/C [22]: 101%
- viability, T/C [23]: 115%
- viability, T/C [24]: 100%
- viability, T/C (second compound 10 µM, first compound 3.16 µM): 94.7%
- viability, T/C (second compound 10 µM, first compound 10 µM): 80.4%

SMILES: Nc1ccn(C2OC(CO)C(O)C2(F)F)c(=O)n1 (centres undefined) + C#Cc1c(F)ccc2cc(O)cc(-c3ncc4c(N5CC6CCC(C5)N6)nc(OCC56CCCN5CC(F)C6)nc4c3F)c12
- IC50 (second compound 0.0316 µM): 94.2 nM
- IC50 (second compound 0.1 µM): 73.9 nM
- IC50 (second compound 0.316 µM): 85.2 nM
- IC50 (second compound 1 µM): 71.4 nM
- IC50 (second compound 3.16 µM): 85.8 nM
- IC50 (second compound 10 µM): 62.7 nM
- viability, T/C (second compound 0.0316 µM, first compound 0.00316 µM): 103%
- viability, T/C (second compound 0.0316 µM, first compound 0.01 µM): 92.8%
- viability, T/C [1]: 64.8%
- viability, T/C [2]: 54%
- viability, T/C [3]: 31.3%
- viability, T/C [4]: 28.6%
- viability, T/C (second compound 0.1 µM, first compound 0.00316 µM): 101%
- viability, T/C (second compound 0.1 µM, first compound 0.01 µM): 91.1%
- viability, T/C [5]: 62.3%
- viability, T/C [6]: 47.8%
- viability, T/C [7]: 29.6%
- viability, T/C [8]: 26.3%
- viability, T/C (second compound 0.316 µM, first compound 0.00316 µM): 97.8%
- viability, T/C (second compound 0.316 µM, first compound 0.01 µM): 92.2%
- viability, T/C [9]: 58.7%
- viability, T/C [10]: 50.2%
- viability, T/C [11]: 37.1%
- viability, T/C [12]: 25.3%
- viability, T/C (second compound 1 µM, first compound 0.00316 µM): 97.9%
- viability, T/C (second compound 1 µM, first compound 0.01 µM): 81.9%
- viability, T/C [13]: 60.6%
- viability, T/C [14]: 43.5%
- viability, T/C [15]: 38.1%
- viability, T/C [16]: 26.7%
- viability, T/C (second compound 3.16 µM, first compound 0.00316 µM): 96.8%
- viability, T/C (second compound 3.16 µM, first compound 0.01 µM): 89.7%
- viability, T/C [17]: 63.1%
- viability, T/C [18]: 49%
- viability, T/C [19]: 36.2%
- viability, T/C [20]: 28.1%
- viability, T/C (second compound 10 µM, first compound 0.00316 µM): 101%
- viability, T/C (second compound 10 µM, first compound 0.01 µM): 95.2%
- viability, T/C [21]: 61.9%
- viability, T/C [22]: 42%
- viability, T/C [23]: 35.6%
- viability, T/C [24]: 27.1%
